Reference: ChEMBL document CHEMBL1629538 (J Med Chem, 2010)
Active and inactive are the calls of the source. The calls are words filed in the database; no cut-off is given here. Bridge positions count the residues as written; N and C are the ends. Peptide text beside a SMILES is read from it. * marks the point of attachment. Bz = O=C(c1ccccc1)*

How the values were obtained:
[1] = target: T1, Nociceptin receptor (Mus musculus, UniProt P35377); assay: Agonist activity at NOR in mouse Neuro-2a cells assessed as stimulation of ERK phosphorylation after 35 mins post dose by Alphascreen Surefire assay
[2] = Half life in human serum; format: ADME, cell-free
[3] = Cytotoxicity in human erythrocytes assessed as induction of hemolysis at 100 uM; format: cell-based; conditions: erythrocyte
[4] = target: Nociceptin receptor (Mus musculus) (UniProt P35377); assay: Agonist activity at NOR in mouse Neuro-2a cells assessed as stimulation of ERK phosphorylation after 35 mins post dose by Alphascreen Surefire assay relative to control
[5] = target: Nociceptin receptor (Mus musculus) (UniProt P35377); assay: Agonist activity at NOR in mouse Neuro-2a cells assessed as stimulation of ERK phosphorylation at 1 uM after 35 mins post dose by Alphascreen Surefire assay
[6] = target: T1, Nociceptin receptor; assay: Antagonist activity at NOR in mouse Neuro-2a cells assessed as inhibition of nociceptin-induced ERK phosphorylation administered for 15 mins before nociceptin challenge by competitive inhibition assay; format: functional, cell-based; conditions: read-out: pA2 (converted)
[7] = target: T1, Nociceptin receptor; assay: Antagonist activity at NOR in mouse Neuro-2a cells assessed as inhibition of nociceptin-induced ERK phosphorylation administered for 15 mins before nociceptin challenge by Alphascreen Surefire assay; format: functional, cell-based
[8] = target: Nociceptin receptor (Mus musculus) (UniProt P35377); assay: Antagonist activity at NOR in mouse Neuro-2a cells assessed as inhibition of nociceptin-induced ERK phosphorylation at 100 nM administered for 15 mins before nociceptin challenge by Alphascreen Surefire assay; format: functional, cell-based

T1 sequence (P35377 whole entry): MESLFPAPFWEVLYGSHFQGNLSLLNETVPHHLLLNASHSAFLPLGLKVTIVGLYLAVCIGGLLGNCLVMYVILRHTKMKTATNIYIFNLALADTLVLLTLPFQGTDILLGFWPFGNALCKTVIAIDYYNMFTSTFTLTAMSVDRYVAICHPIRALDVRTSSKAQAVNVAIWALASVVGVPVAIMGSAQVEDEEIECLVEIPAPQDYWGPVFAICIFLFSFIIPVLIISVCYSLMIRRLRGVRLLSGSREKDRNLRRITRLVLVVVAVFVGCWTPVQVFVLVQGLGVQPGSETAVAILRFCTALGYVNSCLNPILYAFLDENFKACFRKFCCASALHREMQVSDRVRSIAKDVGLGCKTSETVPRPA
Nociceptin receptor (Mus musculus), sequence (P35377 whole entry): as above

For `CC(C)C[C@H](NC(=O)[C@H](CCCCN)NC(=O)[C@H](CCCN=C(N)N)NC(=O)[C@H](C)NC(=O)[C@H](CO)NC(=O)[C@H](CCCCN)NC(=O)[C@H](CCCN=C(N)N)NC(=O)[C@H](C)NC(=O)CNC(=O)[C@@H](NC(=O)[C@H](Cc1ccc(F)cc1)NC(=O)CNC(=O)CNC(=O)[C@@H](N)Cc1ccccc1)[C@@H](C)O)C(=O)N[C@@H](CCCCN)C(=O)N[C@@H](CC(N)=O)C(=O)N[C@@H](CCC(N)=O)C(N)=O`, which EC50 [1] is on record?
Its EC50 is 0.36 nM.

Which results are given for `C[C@@H]1NC(=O)[C@@H](NC(=O)[C@H](CCCCN)NC(=O)[C@H](CCCN=C(N)N)NC(=O)[C@@H]2CC(=O)NCCCC[C@H](NC(=O)CNC(=O)[C@@H](NC(=O)[C@H](Cc3ccccc3)NC(=O)CNC(=O)CNC(=O)[C@@H](N)Cc3ccccc3)[C@@H](C)O)C(=O)N[C@@H](CCCN=C(N)N)C(=O)N[C@@H](CCCCN)C(=O)N[C@@H](CO)C(=O)N2)CCCCNC(=O)C[C@@H](C(N)=O)NC(=O)[C@H](CCC(N)=O)NC(=O)[C@H](CC(N)=O)NC1=O`?
half-life [2]: > 6 h; Activity [3]: Non-toxic

Which Emax [4] does the source give for `C[C@H](NC(=O)CNC(=O)[C@@H](NC(=O)[C@H](Cc1ccccc1)NC(=O)CNC(=O)CNC(=O)[C@@H](N)Cc1ccccc1)[C@@H](C)O)C(=O)N[C@@H](CCCNC(=N)N)C(=O)N[C@@H](CCCCN)C(=O)N[C@@H](CO)C(=O)N[C@@H](C)C(=O)N[C@@H](CCCNC(=N)N)C(=O)N[C@@H](CCCCN)C(N)=O` here?
The Emax was 90%.

With `C[C@@H](O)[C@H](NC(=O)[C@H](Cc1ccc(F)cc1)NC(=O)CNC(=O)CNC(=O)CNC(=O)c1ccccc1)C(=O)NCC(=O)N[C@H]1CCCCNC(=O)C[C@@H](C(=O)N[C@@H](CCCNC(=N)N)C(=O)N[C@@H](CCCCN)C(=O)N[C@H]2CCCCNC(=O)C[C@@H](C(N)=O)NC(=O)[C@H](CCC(N)=O)NC(=O)[C@H](CC(N)=O)NC(=O)[C@H](CCCCN)NC2=O)NC(=O)[C@H](CO)NC(=O)[C@H](CCCCN)NC(=O)[C@H](CCCNC(=N)N)NC1=O` as the molecule, how does the Activity [5] read?
Its Activity is “inactive”.

Which EC50 [1] does the source give for `C[C@@H](O)[C@H](NC(=O)[C@H](Cc1ccc(F)cc1)NC(=O)CNC(=O)CNC(=O)[C@@H](N)Cc1ccccc1)C(=O)NCC(=O)N[C@H]1CCCCNC(=O)C[C@@H](C(=O)N[C@@H](CCCN=C(N)N)C(=O)N[C@@H](CCCCN)C(=O)N[C@H]2CCCCNC(=O)C[C@@H](C(N)=O)NC(=O)[C@H](CCC(N)=O)NC(=O)[C@H](CC(N)=O)NC(=O)[C@H](CCCCN)NC2=O)NC(=O)[C@H](CO)NC(=O)[C@H](CCCCN)NC(=O)[C@H](CCCN=C(N)N)NC1=O` here?
Its EC50 is 0.04 nM.

And the EC50 ([1]; neuro-2a)?
The EC50 was 0.04 nM.

Which Kb [6] does the source give for `C[C@@H](O)[C@H](NC(=O)[C@H](Cc1ccc(F)cc1)NC(=O)CNC(=O)CNC(=O)CNC(=O)c1ccccc1)C(=O)NCC(=O)N[C@H]1CCCCNC(=O)C[C@@H](C(=O)N[C@@H](CCCN=C(N)N)C(=O)N[C@@H](CCCCN)C(=O)N[C@H]2CCCCNC(=O)C[C@@H](C(N)=O)NC(=O)[C@H](CCC(N)=O)NC(=O)[C@H](CC(N)=O)NC(=O)[C@H](CCCCN)NC2=O)NC(=O)[C@H](CO)NC(=O)[C@H](CCCCN)NC(=O)[C@H](CCCN=C(N)N)NC1=O` here?
The Kb was 1.95 nM.

And the IC50 ([7]; read-out: IC50)?
The IC50 was 7.5 nM.

For `CC(=O)N[C@H](C(=O)N[C@H]1CCCCNC(=O)C[C@@H](C(=O)N[C@H]2CCCCNC(=O)C[C@@H](C(N)=O)NC(=O)[C@H](CC(C)C)NC(=O)[C@H](CCCCN)NC(=O)[C@H](CCCN=C(N)N)NC2=O)NC(=O)[C@H](CCCCN)NC(=O)[C@H](CCCN=C(N)N)NC(=O)[C@H](C)NC1=O)[C@@H](C)O` (Ac-TKARKDKRKLD-NH2; lactam 2-6, 7-11), which IC50 ([7]; read-out: pIC50 (converted)) is on record?
Its IC50 is greater than 100 nM.

Which EC50 [1] does the source give for `C[C@@H](O)[C@H](NC(=O)[C@H](Cc1ccccc1)NC(=O)CNC(=O)CNC(=O)[C@@H](N)Cc1ccccc1)C(=O)NCC(=O)N[C@H]1CCCCNC(=O)C[C@@H](C(=O)N[C@@H](CCCN=C(N)N)C(=O)N[C@@H](CCCCN)C(N)=O)NC(=O)[C@H](CO)NC(=O)[C@H](CCCCN)NC(=O)[C@H](CCCN=C(N)N)NC1=O` (H-FGGFTGKRKSDRK-NH2; lactam 7-11) here?
The EC50 was 30 nM.

With `C[C@@H](O)[C@H](NC(=O)[C@H](Cc1ccccc1)NC(=O)CNC(=O)CNC(=O)[C@@H](N)Cc1ccccc1)C(=O)NCC(=O)N[C@H]1CCCCNC(=O)C[C@@H](C(=O)N[C@@H](CCCNC(=N)N)C(=O)N[C@@H](CCCCN)C(N)=O)NC(=O)[C@H](CO)NC(=O)[C@H](CCCCN)NC(=O)[C@H](CCCNC(=N)N)NC1=O` (H-FGGFTGKRKSDRK-NH2; lactam 7-11) as the molecule, how does the Emax [4] read?
Its Emax is 80%.

With `CC(C)C[C@H](NC(=O)[C@H](CCCCN)NC(=O)[C@H](CCCNC(=N)N)NC(=O)[C@H](C)NC(=O)[C@H](CO)NC(=O)[C@H](CCCCN)NC(=O)[C@H](CCCNC(=N)N)NC(=O)[C@H](C)NC(=O)CNC(=O)[C@@H](NC(=O)[C@H](Cc1ccc(F)cc1)NC(=O)CNC(=O)CNC(=O)CNC(=O)c1ccccc1)[C@@H](C)O)C(=O)N[C@@H](CCCCN)C(=O)N[C@@H](CC(N)=O)C(=O)N[C@@H](CCC(N)=O)C(N)=O` as the molecule, how does the Activity [5] read?
The Activity was “inactive”.

Which IC50 ([7]; read-out: IC50) does the source give for `C[C@@H](O)[C@H](NC(=O)[C@H](Cc1ccccc1)NC(=O)CNC(=O)CNC(=O)CNC(=O)c1ccccc1)C(=O)NCC(=O)N[C@H]1CCCCNC(=O)C[C@@H](C(=O)N[C@@H](CCCN=C(N)N)C(=O)N[C@@H](CCCCN)C(=O)N[C@H]2CCCCNC(=O)C[C@@H](C(N)=O)NC(=O)[C@H](CCC(N)=O)NC(=O)[C@H](CC(N)=O)NC(=O)[C@H](CCCCN)NC2=O)NC(=O)[C@H](CO)NC(=O)[C@H](CCCCN)NC(=O)[C@H](CCCN=C(N)N)NC1=O` (Bz-GGGFTGKRKSDRKKKNQD-NH2; lactam 7-11, 14-18) here?
The IC50 was 12 nM.

Which IC50 ([7]; read-out: pIC50 (converted)) does the source give for `CC(C)C[C@@H]1NC(=O)[C@H](CCCCN)NC(=O)[C@H](CCCN=C(N)N)NC(=O)[C@@H](NC(=O)[C@@H]2CC(=O)NCCCC[C@H](NC(=O)[C@@H](NC(=O)[C@H](Cc3ccccc3)NC(=O)CNC(=O)CNC(=O)CNC(=O)c3ccccc3)[C@@H](C)O)C(=O)N[C@@H](C)C(=O)N[C@@H](CCCN=C(N)N)C(=O)N[C@@H](CCCCN)C(=O)N2)CCCCNC(=O)C[C@@H](C(N)=O)NC1=O` (Bz-GGGFTKARKDKRKLD-NH2; lactam 6-10, 11-15) here?
The IC50 was greater than 100 nM.

What does the source list for `CC(C)C[C@H](NC(=O)[C@H](CCCCN)NC(=O)[C@H](CCCN=C(N)N)NC(=O)[C@H](C)NC(=O)[C@H](CO)NC(=O)[C@H](CCCCN)NC(=O)[C@H](CCCN=C(N)N)NC(=O)[C@H](C)NC(=O)CNC(=O)[C@@H](NC(=O)[C@H](Cc1ccccc1)NC(=O)CNC(=O)CNC(=O)[C@@H](N)Cc1ccccc1)[C@@H](C)O)C(=O)N[C@@H](C)C(=O)N[C@@H](CC(N)=O)C(=O)N[C@@H](CCC(N)=O)C(=O)O` [NOCICEPTIN]?
half-life [2]: 1 h; Activity [3]: Non-toxic

Which pIC50 ([7]; neuro-2a) does the source give for `CC(C)C[C@H](NC(=O)[C@H](CCCCN)NC(=O)[C@H](CCCN=C(N)N)NC(=O)[C@H](C)NC(=O)[C@H](CO)NC(=O)[C@H](CCCCN)NC(=O)[C@H](CCCN=C(N)N)NC(=O)[C@H](C)NC(=O)CNC(=O)[C@@H](NC(=O)[C@H](Cc1ccc(F)cc1)NC(=O)CNC(=O)CNC(=O)CNCc1ccccc1)[C@@H](C)O)C(=O)N[C@@H](CCCCN)C(=O)N[C@@H](CC(N)=O)C(=O)N[C@@H](CCC(N)=O)C(N)=O` here?
Its pIC50 is 7.49.

For `CC(=O)N[C@H](C(=O)N[C@H]1CCCCNC(=O)C[C@@H](C(=O)N[C@H]2CCCCNC(=O)C[C@@H](C(N)=O)NC(=O)[C@H](CC(C)C)NC(=O)[C@H](CCCCN)NC(=O)[C@H](CCCNC(=N)N)NC2=O)NC(=O)[C@H](CCCCN)NC(=O)[C@H](CCCNC(=N)N)NC(=O)[C@H](C)NC1=O)[C@@H](C)O` (Ac-TKARKDKRKLD-NH2; lactam 2-6, 7-11), which inhibition [8] is on record?
The inhibition was “inactive”.

For `CC(C)C[C@@H]1NC(=O)[C@H](CCCCN)NC(=O)[C@H](CCCNC(=N)N)NC(=O)[C@@H](NC(=O)[C@@H]2CC(=O)NCCCC[C@H](NC(=O)[C@@H](NC(=O)[C@H](Cc3ccccc3)NC(=O)CNC(=O)CNC(=O)CNC(=O)c3ccccc3)[C@@H](C)O)C(=O)N[C@@H](C)C(=O)N[C@@H](CCCNC(=N)N)C(=O)N[C@@H](CCCCN)C(=O)N2)CCCCNC(=O)C[C@@H](C(N)=O)NC1=O` (Bz-GGGFTKARKDKRKLD-NH2; lactam 6-10, 11-15), which inhibition [8] is on record?
Its inhibition is “inactive”.

Which Emax [4] does the source give for `C[C@@H](O)[C@H](NC(=O)[C@H](Cc1ccccc1)NC(=O)CNC(=O)CNC(=O)[C@@H](N)Cc1ccccc1)C(=O)NCC(=O)N[C@H]1CCCCNC(=O)C[C@@H](C(N)=O)NC(=O)[C@H](CCCCN)NC(=O)[C@H](CCCNC(=N)N)NC(=O)[C@@H]2CC(=O)NCCCC[C@@H](CC(=O)[C@H](CCCCN)NC(=O)[C@H](CCCNC(=N)N)NC1=O)C(=O)N2` here?
The Emax was 92%.

Which EC50 [1] does the source give for `C[C@@H](O)[C@H](NC(=O)[C@H](Cc1ccccc1)NC(=O)CNC(=O)CNC(=O)[C@@H](N)Cc1ccccc1)C(=O)NCC(=O)N[C@H]1CCCCNC(=O)C[C@@H](C(N)=O)NC(=O)[C@H](CCCCN)NC(=O)[C@H](CCCN=C(N)N)NC(=O)[C@@H]2CC(=O)NCCCC[C@@H](CC(=O)[C@H](CCCCN)NC(=O)[C@H](CCCN=C(N)N)NC1=O)C(=O)N2` here?
The EC50 was 14 nM.
